Reference: PubChem BioAssay AID1963864 (Molecular Pharmacology Branch, DTP, NCI, 2024)

Test system: KRAS PDC multicell spheroid viability
Assay: Anticancer human tumor 521955-158-R6-J3-PDC patient-derived pancreatic carcinoma cell line growth inhibition [KRAS2]
Details: for IC50: curve of first compound; for viability, T/C: stronger effect = lower value
In short: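 Combination screen of spheroid viability in tumor-cell co-cultures with endothelial (HUVEC) and mesenchymal stem cell stroma. Each agent was tested in half-log dilutions, topping at clinical Cmax or at 10 microM without a known Cmax.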

[1] = second compound 0.0316 µM, first compound 0.0316 µM
[2] = second compound 0.0316 µM, first compound 0.1 µM
[3] = second compound 0.0316 µM, first compound 0.316 µM
[4] = second compound 0.0316 µM, first compound 1 µM
[5] = second compound 0.0316 µM, first compound 3.16 µM
[6] = second compound 0.0316 µM, first compound 10 µM
[7] = second compound 0.1 µM, first compound 0.0316 µM
[8] = second compound 0.1 µM, first compound 0.1 µM
[9] = second compound 0.1 µM, first compound 0.316 µM
[10] = second compound 0.1 µM, first compound 1 µM
[11] = second compound 0.1 µM, first compound 3.16 µM
[12] = second compound 0.1 µM, first compound 10 µM
[13] = second compound 0.316 µM, first compound 0.0316 µM
[14] = second compound 0.316 µM, first compound 0.1 µM
[15] = second compound 0.316 µM, first compound 0.316 µM
[16] = second compound 0.316 µM, first compound 1 µM
[17] = second compound 0.316 µM, first compound 3.16 µM
[18] = second compound 0.316 µM, first compound 10 µM
[19] = second compound 1 µM, first compound 0.0316 µM
[20] = second compound 1 µM, first compound 0.1 µM
[21] = second compound 1 µM, first compound 0.316 µM
[22] = second compound 1 µM, first compound 1 µM
[23] = second compound 1 µM, first compound 3.16 µM
[24] = second compound 1 µM, first compound 10 µM
[25] = second compound 3.16 µM, first compound 0.0316 µM
[26] = second compound 3.16 µM, first compound 0.1 µM
[27] = second compound 3.16 µM, first compound 0.316 µM
[28] = second compound 3.16 µM, first compound 1 µM
[29] = second compound 3.16 µM, first compound 3.16 µM
[30] = second compound 3.16 µM, first compound 10 µM
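Note: drug exposure lasted seven days.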
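Throughout, for viability, T/C: 100% = DMSO vehicle wells and lower means fewer viable cells.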

## COc1cc(Nc2ncc3c(n2)-c2ccc(Cl)cc2C(c2c(F)cccc2OC)=NC3)ccc1C(=O)O + C=CC(=O)N1CCN(c2nc(OCC3CCCN3C)nc3c2CCN(c2cccc4cccc(C)c24)C3)CC1CC#N
Second compound 0.0316 µM
  IC50: > 10 µM
Second compound 0.1 µM
  IC50: > 10 µM
Second compound 0.316 µM
  IC50: > 10 µM
Second compound 1 µM
  IC50: > 10 µM
Second compound 3.16 µM
  IC50: < 0.0316 µM
[1]
  viability, T/C: 95.3%
[2]
  viability, T/C: 86.4%
[3]
  viability, T/C: 87.3%
[4]
  viability, T/C: 88.1%
[5]
  viability, T/C: 89.5%
[6]
  viability, T/C: 83.6%
[7]
  viability, T/C: 92.2%
[8]
  viability, T/C: 91%
[9]
  viability, T/C: 87.7%
[10]
  viability, T/C: 91%
[11]
  viability, T/C: 92%
[12]
  viability, T/C: 97.9%
[13]
  viability, T/C: 86.2%
[14]
  viability, T/C: 87.4%
[15]
  viability, T/C: 79.8%
[16]
  viability, T/C: 78.1%
[17]
  viability, T/C: 85.9%
[18]
  viability, T/C: 86.4%
[19]
  viability, T/C: 78%
[20]
  viability, T/C: 66%
[21]
  viability, T/C: 82.2%
[22]
  viability, T/C: 76.1%
[23]
  viability, T/C: 82.7%
[24]
  viability, T/C: 77.3%
[25]
  viability, T/C: 25.6%
[26]
  viability, T/C: 25.7%
[27]
  viability, T/C: 18.3%
[28]
  viability, T/C: 53.4%
[29]
  viability, T/C: 59.4%
[30]
  viability, T/C: 29.2%

## COc1cc2nccc(Oc3ccc(NC(=O)C4(C(=O)Nc5ccc(F)cc5)CC4)cc3)c2cc1OC + C=CC(=O)N1CCN(c2nc(OCC3CCCN3C)nc3c2CCN(c2cccc4cccc(C)c24)C3)CC1CC#N
Second compound 0.0316 µM
  IC50: > 10 µM
Second compound 0.1 µM
  IC50: > 10 µM
Second compound 0.316 µM
  IC50: > 10 µM
Second compound 1 µM
  IC50: > 10 µM
Second compound 3.16 µM
  IC50: < 0.0316 µM
[1]
  viability, T/C: 103%
[2]
  viability, T/C: 111%
[3]
  viability, T/C: 98.6%
[4]
  viability, T/C: 107%
[5]
  viability, T/C: 126%
[6]
  viability, T/C: 128%
[7]
  viability, T/C: 106%
[8]
  viability, T/C: 102%
[9]
  viability, T/C: 117%
[10]
  viability, T/C: 116%
[11]
  viability, T/C: 143%
[12]
  viability, T/C: 133%
[13]
  viability, T/C: 103%
[14]
  viability, T/C: 99.3%
[15]
  viability, T/C: 96.5%
[16]
  viability, T/C: 109%
[17]
  viability, T/C: 138%
[18]
  viability, T/C: 140%
[19]
  viability, T/C: 81.1%
[20]
  viability, T/C: 80.8%
[21]
  viability, T/C: 83.3%
[22]
  viability, T/C: 82.3%
[23]
  viability, T/C: 123%
[24]
  viability, T/C: 111%
[25]
  viability, T/C: 43.3%
[26]
  viability, T/C: 44%
[27]
  viability, T/C: 33.7%
[28]
  viability, T/C: 15.4%
[29]
  viability, T/C: 1.6%
[30]
  viability, T/C: 17.8%

## O=C(c1cc(Cc2n[nH]c(=O)c3ccccc23)ccc1F)N1CCN(C(=O)C2CC2)CC1 + C=CC(=O)N1CCN(c2nc(OCC3CCCN3C)nc3c2CCN(c2cccc4cccc(C)c24)C3)CC1CC#N
Second compound 0.0316 µM
  IC50: > 10 µM
Second compound 0.1 µM
  IC50: > 10 µM
Second compound 0.316 µM
  IC50: > 10 µM
Second compound 1 µM
  IC50: > 10 µM
Second compound 3.16 µM
  IC50: < 0.0316 µM
[1]
  viability, T/C: 90%
[2]
  viability, T/C: 97%
[3]
  viability, T/C: 96.7%
[4]
  viability, T/C: 96.4%
[5]
  viability, T/C: 89.4%
[6]
  viability, T/C: 111%
[7]
  viability, T/C: 97.9%
[8]
  viability, T/C: 96.4%
[9]
  viability, T/C: 97.5%
[10]
  viability, T/C: 83.5%
[11]
  viability, T/C: 87.5%
[12]
  viability, T/C: 101%
[13]
  viability, T/C: 97.5%
[14]
  viability, T/C: 107%
[15]
  viability, T/C: 103%
[16]
  viability, T/C: 84.9%
[17]
  viability, T/C: 87.3%
[18]
  viability, T/C: 93.6%
[19]
  viability, T/C: 89.9%
[20]
  viability, T/C: 95.3%
[21]
  viability, T/C: 79%
[22]
  viability, T/C: 73.4%
[23]
  viability, T/C: 86.2%
[24]
  viability, T/C: 90.5%
[25]
  viability, T/C: 42.9%
[26]
  viability, T/C: 31.2%
[27]
  viability, T/C: 24.1%
[28]
  viability, T/C: 24.4%
[29]
  viability, T/C: 39.9%
[30]
  viability, T/C: 12.4%
